According to patent publication US12065399B2, “Arylsulfonamide derivatives” (Hoffmann-La Roche Inc., priority 2019, dated 2024):
Counter-ions that a name gives are not always drawn.

target: human mGlu4 receptor (Homo sapiens (Human), UniProt Q14833); experiment: Intracellular Ca2+ mobilization assay (FLIPR), mGlu4 NAM; assay type: cell-based; conditions: HEK-293 cells stably transfected with human mGlu4; inhibition of L-AP4 (EC80) response; IC50
Protocol: 2.1) Intracellular Ca^2+ Mobilization Assay (FLIPR)
A monoclonal HEK-293 cell line stably transfected with a cDNA encoding for the human mGlu4 receptor was generated. Cells were cultured according to standard protocols (Freshney, 2000) in Dulbecco's Modified Eagle Medium with high glucose supplemented with 1 mM glutamine, 10% (vol/vol) heat-inactivated bovine calf serum, penicillin/streptomycin, 50 μg/ml hygromycin and 15 μg/ml blasticidin (all cell culture reagents and antibiotics from Invitrogen, Basel, Switzerland).
About 24 hrs before an experiment, 5×10^4 cells/well were seeded in poly-D-lysine coated, black/clear-bottomed 96-well plates. The cells were loaded with 2.5 μM Fluo-4AM in loading buffer (1×HBSS, 20 mM HEPES) for 1 hr at 37° C. and washed five times with loading buffer. The cells were transferred into a Functional Drug Screening System 7000 (Hamamatsu, Paris, France), and 11 half logarithmic serial dilutions of test compound at 37° C. were added and the cells were incubated for 10-30 min. with on-line recording of fluorescence. Following this pre-incubation step, the agonist (2S)-2-amino-4-phosphonobutanoic acid (L-AP4) was added to the cells at a concentration corresponding to EC80 with on-line recording of fluorescence; in order to account for day-to-day variations in the responsiveness of cells, the EC80 of L-AP4 was determined immediately ahead of each experiment by recording of a full dose-response curve of L-AP4.
Responses were measured as peak increase in fluorescence minus basal (i.e. fluorescence without addition of L-AP4), normalized to the maximal stimulatory effect obtained with saturating concentrations of L-AP4. Graphs were plotted with the % maximal stimulatory using XLfit, a curve fitting program that iteratively plots the data using Levenburg Marquardt algorithm. The single site competition analysis equation used was y=A+((B-A)/(1+((x/C)D))), where y is the % maximal stimulatory effect, A is the minimum y, B is the maximum y, C is the IC50, x is the log 10 of the concentration of the competing compound and D is the slope of the curve (the Hill Coefficient). From these curves the IC50 (drug concentration at which 50% of the receptor activation achieved from the addition of L-AP4 in the experiment was inhibited), the Hill coefficient as well as the maximal response in % of the maximal stimulatory effect obtained with saturating concentrations of L-AP4 were calculated (see FIG. 1).

human mGlu4 receptor, sequence (Q14833 33-912): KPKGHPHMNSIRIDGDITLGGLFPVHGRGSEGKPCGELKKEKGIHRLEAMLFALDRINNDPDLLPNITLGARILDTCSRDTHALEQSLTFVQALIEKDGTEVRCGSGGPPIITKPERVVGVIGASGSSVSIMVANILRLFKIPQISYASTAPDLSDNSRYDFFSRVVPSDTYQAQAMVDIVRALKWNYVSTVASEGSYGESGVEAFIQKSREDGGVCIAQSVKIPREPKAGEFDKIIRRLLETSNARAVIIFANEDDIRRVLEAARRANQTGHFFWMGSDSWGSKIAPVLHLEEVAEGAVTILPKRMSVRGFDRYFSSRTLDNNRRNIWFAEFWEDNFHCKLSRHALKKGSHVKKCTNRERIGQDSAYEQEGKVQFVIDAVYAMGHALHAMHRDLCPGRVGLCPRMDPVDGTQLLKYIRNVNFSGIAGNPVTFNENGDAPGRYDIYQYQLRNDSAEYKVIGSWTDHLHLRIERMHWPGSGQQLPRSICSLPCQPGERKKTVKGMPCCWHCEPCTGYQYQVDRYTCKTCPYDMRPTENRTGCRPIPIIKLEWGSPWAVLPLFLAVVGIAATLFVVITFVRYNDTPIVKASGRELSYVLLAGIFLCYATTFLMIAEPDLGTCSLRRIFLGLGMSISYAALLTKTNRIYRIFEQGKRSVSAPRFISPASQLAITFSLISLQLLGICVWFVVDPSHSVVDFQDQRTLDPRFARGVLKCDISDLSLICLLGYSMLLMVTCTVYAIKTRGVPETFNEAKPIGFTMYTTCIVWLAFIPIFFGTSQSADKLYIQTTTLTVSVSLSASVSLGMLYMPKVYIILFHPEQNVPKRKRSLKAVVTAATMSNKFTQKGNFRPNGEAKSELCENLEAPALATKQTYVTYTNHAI

Row | SMILES | EC50 [µM]
1 | Cc1cc(F)c(C)c(S(=O)(=O)Nc2c(F)cc(C#Cc3cncc(F)c3)cc2F)c1 [Example 38, N-[2,6-difluoro-4-[2-(5-fluoro-3-pyridyl)ethynyl]phenyl]-3-fluoro-2,5-dimethyl-benzenesulfonamide; 2,2,2-trifluoroacetic acid salt] | 0.434
2 | Cn1nccc1S(=O)(=O)Nc1c(F)cc(C#Cc2cncc(F)c2)cc1F [Example 39, N-[2,6-difluoro-4-[2-(5-fluoro-3-pyridyl)ethynyl]phenyl]-2-methyl-pyrazole-3-sulfonamide; 2,2,2-trifluoroacetic acid salt] | 10.5
3 | Cc1cc(F)c(C)c(S(=O)(=O)Nc2c(F)cc(C#Cc3ccccc3)cc2F)c1 [Example 40, N-[2,6-difluoro-4-(2-phenylethynyl)phenyl]-3-fluoro-2,5-dimethyl-benzenesulfonamide] | 0.808
4 | Cc1nn(C)cc1S(=O)(=O)Nc1c(F)cc(C#Cc2ccccc2)cc1F [Example 41, N-[2,6-difluoro-4-(2-phenylethynyl)phenyl]-1,3-dimethyl-pyrazole-4-sulfonamide; 2,2,2-trifluoroacetic acid salt] | 9.35
5 | COc1cccc(C#Cc2cc(F)c(NS(=O)(=O)c3cccc(Cl)c3C)c(F)c2)c1 [Example 42, 3-chloro-N-[2,6-difluoro-4-[2-(3-methoxyphenyl)ethynyl]phenyl]-2-methyl-benzenesulfonamide] | 1.32
6 | Cc1c(Cl)cccc1S(=O)(=O)Nc1c(F)cc(C#Cc2cccc(F)c2)cc1F [Example 43, 3-chloro-N-[2,6-difluoro-4-[2-(3-fluorophenyl)ethynyl]phenyl]-2-methyl-benzenesulfonamide] | 1.27
7 | Cc1cc(F)c(C)c(S(=O)(=O)Nc2c(F)cc(C#Cc3cccc(F)c3)cc2F)c1 [Example 45, N-[2,6-difluoro-4-[2-(3-fluorophenyl)ethynyl]phenyl]-3-fluoro-2,5-dimethyl-benzenesulfonamide] | 1.32
8 | COc1c(F)cccc1S(=O)(=O)Nc1c(F)cc(C#Cc2ccccc2)cc1F [Example 46, N-[2,6-difluoro-4-(2-phenylethynyl)phenyl]-3-fluoro-2-methoxy-benzenesulfonamide] | 2.11
9 | COc1cccc(C#Cc2cc(F)c(NS(=O)(=O)c3cc(C)cc(F)c3C)c(F)c2)c1 [Example 47, N-[2,6-difluoro-4-[2-(3-methoxyphenyl)ethynyl]phenyl]-3-fluoro-2,5-dimethyl-benzenesulfonamide] | 1.05
10 | Cc1cc(F)c(C)c(S(=O)(=O)Nc2c(F)cc(C#Cc3cccc(Cl)c3)cc2F)c1 [Example 48, N-[4-[2-(3-chlorophenyl)ethynyl]-2,6-difluoro-phenyl]-3-fluoro-2,5-dimethyl-benzenesulfonamide] | 1.25
11 | Cc1cc(F)c(C)c(S(=O)(=O)Nc2c(F)cc(C#Cc3cc(F)cc(F)c3)cc2F)c1 [Example 49, N-[4-[2-(3,5-difluorophenyl)ethynyl]-2,6-difluoro-phenyl]-3-fluoro-2,5-dimethyl-benzenesulfonamide] | 0.902
12 | Cc1cc(F)c(C)c(S(=O)(=O)Nc2c(F)cc(C#Cc3cccnc3)cc2F)c1 [Example 50, N-[2,6-difluoro-4-[2-(3-pyridyl)ethynyl]phenyl]-3-fluoro-2,5-dimethyl-benzenesulfonamide] | 0.274
13 | Cc1cccc(C#Cc2cc(F)c(NS(=O)(=O)c3cc(C)cc(F)c3C)c(F)c2)c1 [Example 51, N-[2,6-difluoro-4-[2-(m-tolyl)ethynyl]phenyl]-3-fluoro-2,5-dimethyl-benzenesulfonamide] | 1.41
14 | Cc1c(Cl)cccc1S(=O)(=O)Nc1c(F)cc(C#Cc2cncc(F)c2)cc1F [Example 52, 3-chloro-N-[2,6-difluoro-4-[2-(5-fluoro-3-pyridyl)ethynyl]phenyl]-2-methyl-benzenesulfonamide] | 0.761
15 | Cc1c(Cl)cc(F)cc1S(=O)(=O)Nc1c(F)cc(C#Cc2cncc(F)c2)cc1F [Example 53, 3-chloro-N-[2,6-difluoro-4-[2-(5-fluoro-3-pyridyl)ethynyl]phenyl]-5-fluoro-2-methyl-benzenesulfonamide] | 0.523
16 | Cc1cc(Cl)c(C)c(S(=O)(=O)Nc2c(F)cc(C#Cc3cncc(F)c3)cc2F)c1 [Example 54, 3-chloro-N-(2,6-difluoro-4-((5-fluoropyridin-3-yl)ethynyl)phenyl)-2,5-dimethylbenzenesulfonamide 2,2,2-trifluoroacetate] | 0.918
17 | Cc1c(Cl)cccc1S(=O)(=O)Nc1c(F)cc(C#Cc2cncc(Cl)c2)cc1F [Example 55, 3-chloro-N-(4-((5-chloropyridin-3-yl)ethynyl)-2,6-difluorophenyl)-2-methylbenzenesulfonamide] | 1.92
18 | Cc1cncc(C#Cc2cc(F)c(NS(=O)(=O)c3cccc(Cl)c3C)c(F)c2)c1 [Example 56, 3-chloro-N-[2,6-difluoro-4-[2-(5-methyl-3-pyridyl)ethynyl]phenyl]-2-methyl-benzenesulfonamide; 2,2,2-trifluoroacetic acid] | 1.47
19 | Cc1c(F)cccc1S(=O)(=O)Nc1c(F)cc(C#Cc2cncc(F)c2)cc1F [Example 57, N-[2,6-difluoro-4-[2-(5-fluoro-3-pyridyl)ethynyl]phenyl]-3-fluoro-2-methyl-benzenesulfonamide; 2,2,2-trifluoroacetic acid] | 0.575
20 | CC(C)(C)c1cnn(-c2cc(F)c(NS(=O)(=O)c3ccccc3Cl)c(F)c2)c1 [Example 58, N-[4-(4-tert-butylpyrazol-1-yl)-2,6-difluoro-phenyl]-2-chloro-benzenesulfonamide] | 13
21 | CC(C)(C)c1cnn(-c2cc(F)c(NS(=O)(=O)c3cc(Cl)cc(Cl)c3)c(F)c2)c1 [Example 60, N-[4-(4-tert-butylpyrazol-1-yl)-2,6-difluoro-phenyl]-3,5-dichloro-benzenesulfonamide] | 6.72
22 | Cc1cc(F)c(C)c(S(=O)(=O)Nc2c(F)cc(C#Cc3cccc(O)c3)cc2F)c1 [Example 61, N-[2,6-difluoro-4-[2-(3-hydroxyphenyl)ethynyl]phenyl]-3-fluoro-2,5-dimethyl-benzenesulfonamide] | 0.992
